Among the test systems are Bacillus subtilis DELTA; Candida parapsilosis; Bacillus cereus AS1.126; Bacillus cereus; Bacillus subtilis; Candida krusei CCM 8271; Escherichia coli AS1.349.
Common to all, as to assay: ≥ marks a high value that may be exact or a test limit, other limits are often not marked, values filed in µg/mL are converted to µM
Assay [1] relates to Candida albicans ATCC 200955.
Assay [2] deals with Enterococcus faecium ATCC 700221.
Assay [3] deals with Escherichia coli ATCC 25922.
The subject of assay [4] is Escherichia coli DH5alpha.
In assay [5] the test system is Pseudomonas aeruginosa ATCC 27853.
The subject of assay [6] is Staphylococcus aureus ATCC 33591.
For assay [7], the system named is Zymomonas mobilis ATCC 10988.
Assay [8] has as its system Streptococcus pneumoniae BCRC 10794.
The subject of assay [9] is Candida albicans CCM 8186.
Assay [10] has as its system Candida albicans CMCC 98001.
The subject of assay [11] is Candida albicans PCM 2566.
Assay [12] concerns Candida glabrata CCM 8270.
The test system of assay [13] is Candida parapsilosis CCM 8260.
Assay [14] has as its system Candida tropicalis CCM 8264.
Assay [15] has as its system Enterobacter cloacae CGMCC 1.58.
The subject of assay [16] is Enterococcus faecalis CGMCC 1.595.
The subject of assay [17] is Enterococcus faecium CGMCC 1.2334.
Assay [18] deals with Escherichia coli PCM 2057.
The test system of assay [19] is Fusobacterium nucleatum CGMCC 1.2526.
The test system of assay [20] is Klebsiella pneumoniae subsp. pneumoniae CGMCC 1.176.
Assay [21] concerns Lactobacillus acidophilus CGMCC 1.1854.
The subject of assay [22] is Proteus mirabilis CICC 22931.
In assay [23] the test system is Pseudomonas aeruginosa CGMCC 1.860.
Assay [24] has as its system Pseudomonas aeruginosa PCM 499.
Assay [25] relates to Staphylococcus aureus AS1.72.
Assay [26] has as its system Staphylococcus aureus PCM 2054.
In assay [27] the test system is Staphylococcus aureus PMC 1650.
The subject of assay [28] is Staphylococcus epidermidis CICC 23664.
Assay [29] deals with Staphylococcus epidermidis PCM 2118.
The subject of assay [30] is Staphylococcus epidermidis PCM 521.
Assay [31] deals with Streptococcus mutans CGMCC 1.2500.
Assay [32] has as its system Streptococcus salivarius CGMCC 1.2498.
In assay [33] the test system is Streptococcus sanguinis CGMCC 1.2497.
Assay [34] concerns Bacillus subtilis ATCC 6633.
The subject of assay [35] is Escherichia coli DSM 1103.
The subject of assay [36] is Kocuria rhizophila DSM 348.
Assay [37] deals with Micrococcus luteus DSM 1790.
Assay [38] relates to Staphylococcus aureus DSM 1104.
Assay [39] relates to Klebsiella pneumoniae ATCC 13883.
The subject of assay [40] is Listeria monocytogenes ATCC 35152.
The test system of assay [41] is Staphylococcus aureus ATCC 25923.
Assay [42] deals with Salmonella enterica subsp. enterica serovar Typhi DMST 22842.
Assay [43] relates to Staphylococcus epidermidis ATCC 12228.

The structures appear in SMILES notation. Values after ≈ are worked out from the molar mass of the structure shown. Values joined by “and” are separate entries in the source; they are usually repeats but may differ in a detail not shown here. Identical values can stand only once.

For the compound `CC[C@H](C)[C@H](NC(=O)[C@H](Cc1ccccc1)NC(=O)[C@H](CCCCN)NC(=O)[C@H](CC(C)C)NC(=O)[C@H](CC(C)C)NC(=O)CN)C(=O)N[C@@H](CCCCN)C(=O)N[C@@H](CCCCN)C(=O)N[C@@H](CC(C)C)C(=O)N[C@@H](CC(C)C)C(N)=O` [GLLKFIKKLL], the MIC was 25.6 µM (≈ 30 µg/mL) with Bacillus subtilis DELTA; 9.5 µM (≈ 11.1 µg/mL) in assay [1]; at least 34.1 µM in the assay on Candida parapsilosis; 9.5 µM (≈ 11.1 µg/mL) in [2]; 9.5 µM (≈ 11.1 µg/mL) in assay [3]; at least 256 µM in assay [4]. Further, the MIC in [5] was 28.4 µM (≈ 33.3 µg/mL); in [6], 9.5 µM (≈ 11.1 µg/mL); in assay [7], 5.97 µM (≈ 6.99 µg/mL).
Turning to `CC[C@H](C)[C@H](NC(C)=O)C(=O)N[C@@H](Cc1cnc[nH]1)C(=O)NCC(=O)N[C@@H](CC(C)C)C(=O)N[C@H](C(N)=O)C(C)C` [IHGLV], the MIC in assay [8] was at least 186 µM.
With `CC[C@H](C)[C@H](N)C(=O)N[C@@H](CCCCN)C(=O)N[C@@H](CCCCN)C(=O)N[C@H](C(=O)N[C@@H](CC(C)C)C(=O)N[C@@H](CO)C(=O)N[C@@H](CCCCN)C(=O)N[C@H](C(=O)N[C@@H](CCCCN)C(=O)N[C@@H](CCCCN)C(=O)N[C@@H](CC(C)C)C(=O)N[C@@H](CC(C)C)C(=O)N[C@@H](CCCCN)C(N)=O)[C@@H](C)CC)[C@@H](C)CC` [IKKILSKIKKLLK], the MIC is 6.25 µM (≈ 9.7 µg/mL) in the assay on Bacillus cereus AS1.126; at least 32.2 µM against Bacillus cereus; 5.02 µM (≈ 7.8 µg/mL) against Bacillus subtilis; 20.2 µM (≈ 31.3 µg/mL) in assay [9]; 6.25 µM (≈ 9.7 µg/mL) in [10]; at least 32.2 µM in assay [11]. Further, the MIC in [12] is 20.2 µM and 20.1 µM; in the assay with Candida krusei CCM 8271, 5.02 µM and 8.05 µM; in assay [13] it was 5.02 µM and 8.05 µM; in [14], 1.29 µM (≈ 2 µg/mL); in [15], at least 100 µM; in assay [16], 3.13 µM (≈ 4.86 µg/mL). For the same compound, the MIC is 5 µM (≈ 7.76 µg/mL) in assay [17]; 3.13 µM (≈ 4.86 µg/mL) in the assay with Escherichia coli AS1.349; at least 80.5 µM in [18]; 4.69 µM (≈ 7.28 µg/mL) in [19]; at least 100 µM in assay [20]; 3.13 µM (≈ 4.86 µg/mL) in [21]. Further, the MIC was at least 100 µM in assay [22]; 6.25 µM (≈ 9.7 µg/mL) in assay [23]; 16.1 µM (≈ 25 µg/mL) in assay [24]; 5 µM (≈ 7.76 µg/mL) in assay [25]; at least 64.4 µM in assay [26]; at least 32.2 µM in assay [27]. Further, the MIC is 4.69 µM (≈ 7.28 µg/mL) in assay [28]; 5.02 µM and 4.02 µM in assay [29]; 4.02 µM (≈ 6.25 µg/mL) in assay [30]; 3.13 µM (≈ 4.86 µg/mL) in assay [31]; 6.25 µM (≈ 9.7 µg/mL) in assay [32]; 6.25 µM (≈ 9.7 µg/mL) in [33].
On to `CC[C@H](C)[C@H](NC(=O)[C@H](CCCCN)NC(=O)CNC(=O)[C@H](C)NC(=O)[C@@H](NC(=O)[C@H](CCCCN)NC(=O)[C@H](C)NC(=O)[C@@H](NC(=O)[C@H](CCCCN)NC(=O)CNC(=O)[C@H](C)NC(=O)[C@@H](NC(=O)[C@H](CCCCN)NC(=O)[C@H](C)NC(=O)[C@@H](NC(=O)[C@H](CCCCN)NC(=O)CNC(=O)[C@H](C)NC(=O)[C@@H](NC(=O)[C@@H](N)CCCCN)[C@@H](C)CC)[C@@H](C)CC)[C@@H](C)CC)[C@@H](C)CC)[C@@H](C)CC)C(=O)N[C@@H](C)C(=O)O` [KIAGKIAKIAGKIAKIAGKIA], for which the MIC in [34] was 3.88 µM (≈ 8 µg/mL); in assay [4] it was 7.75 µM (≈ 16 µg/mL); in assay [35] it was 3.88 µM (≈ 8 µg/mL); in [36] it was at least 62 µM; in [37], 7.75 µM (≈ 16 µg/mL); in [38], at least 62 µM.
As for `CC(C)C[C@H](NC(=O)[C@@H](NC(=O)[C@H](CCC(N)=O)NC(=O)[C@H](CCCCN)NC(=O)[C@H](Cc1cnc[nH]1)NC(=O)[C@H](CC(C)C)NC(=O)[C@H](C)NC(=O)[C@@H](NC(=O)[C@H](CC(C)C)NC(=O)[C@H](CCCCN)NC(=O)[C@H](CC(C)C)NC(=O)[C@@H](N)CCCCN)C(C)C)C(C)C)C(N)=O` [KLKLVALHKQVL], the MIC was determined as 10.8 µM (≈ 15 µg/mL) in assay [3]; 18 µM (≈ 25 µg/mL) in assay [39]; 14.4 µM (≈ 20 µg/mL) in assay [40]; 18 µM (≈ 25 µg/mL) in assay [5]; 7.2 µM (≈ 9.99 µg/mL) in assay [41].
Consider `CC(C)[C@H](NC(=O)CNC(=O)[C@@H](N)CC(N)=O)C(=O)N[C@@H](CCC(N)=O)C(=O)N1CCC[C@H]1C(=O)N[C@@H](CCCCN)C(=O)N[C@@H](Cc1ccc(O)cc1)C(=O)N[C@@H](CCCN=C(N)N)C(=O)N[C@@H](Cc1c[nH]c2ccccc12)C(=O)N[C@@H](Cc1c[nH]c2ccccc12)C(=O)N[C@@H](CCCN=C(N)N)C(=O)N[C@@H](Cc1c[nH]c2ccccc12)C(=O)N[C@@H](Cc1c[nH]c2ccccc12)C(=O)N[C@@H](CCCN=C(N)N)C(=O)N[C@@H](CCCN=C(N)N)C(=O)N[C@@H](Cc1c[nH]c2ccccc12)C(=O)N[C@@H](Cc1c[nH]c2ccccc12)C(=O)O` [NGVQPKYRWWRWWRRWW], for which the MIC in assay [3] was 18.1 µM (≈ 46 µg/mL); in assay [42] it was at least 35.7 µM; in [41], over 35.7 µM; in assay [43], 9.03 µM (≈ 23 µg/mL).

As usually defined, the MIC is the lowest concentration that inhibits growth of the organism. Higher therefore signals a need for much substance.

The values above are taken from DBAASP.
